Where “and” joins values, the source holds several entries; their conditions need not be identical. Equal entries are not always repeated.
Target: PDE10A enzyme (Homo sapiens (Human), UniProt Q9Y233)
Experiment: PDE10A inhibition assay
Type: biochemical
Settings: tritium labeled cAMP 5 nM
Protocol: Active PDE10A enzyme is prepared in a number of ways for use in PDE assays (Loughney, K. et al. Gene 1999, 234, 109-117; Fujishige, K. et al. Eur J Biochem. 1999, 266, 1118-1127 and Soderling, S. et al. Proc. Natl. Acad. Sci. 1999, 96, 7071-7076). PDE10A can be expressed as full-length proteins or as truncated proteins, as long as they express the catalytic domain. PDE10A can be prepared in different cell types, for example insect cells or E. coli. An example of a method to obtain catalytically active PDE10A is as follows: The catalytic domain of human PDE10A (amino acids 440-779 from the sequence with accession number NP 006652) is amplified from total human brain total RNA by standard RT-PCR and is cloned into the BamH1 and Xho1 sites of the pET28a vector (Novagen). Expression in coli is performed according to standard protocols. Briefly, the expression plasmids are transformed into the BL21(DE3) E. coli strain, and 50 mL cultures inoculated with the cells allowed to grow to an OD600 of 0.4-0.6 before protein expression is induced with 0.5 mM IPTG. Following induction, the cells are incubated overnight at room temperature, after which the cells are collected by centrifugation. Cells expressing PDE10A are resuspended in 12 mL (50 mM TRIS-HCl-pH8.0, 1 mM MgCl2 and protease inhibitors). The cells are lysed by sonication, and after all cells are lysed, TritonX100 is added according to Novagen protocols.
A PDE10A assay may for example, be performed as follows: The assay is performed in 60 uL samples containing a fixed amount of the relevant PDE enzyme (sufficient to convert 20-25% of the cyclic nucleotide substrate), a buffer (50 mM HEPES7.6; 10 mM MgCl2; 0.02% Tween20), 0.1 mg/ml BSA, 225 pCi of ^3H-labelled cyclic nucleotide substrate, tritium labeled cAMP to a final concentration of 5 nM and varying amounts of inhibitors. Reactions are initiated by addition of the cyclic nucleotide substrate, and reactions are allowed to proceed for one hr at room temperature before being terminated through mixing with 15 uL 8 mg/mL yttrium silicate SPA beads (Amersham). The beads are allowed to settle for one hr in the dark before the plates are counted in a Wallac 1450 Microbeta counter. The measured signal can be converted to activity relative to an uninhibited control (100%) and IC50 values can be calculated using the XIfit extension to EXCEL.

Sequence of PDE10A enzyme (Q9Y233 716-1055): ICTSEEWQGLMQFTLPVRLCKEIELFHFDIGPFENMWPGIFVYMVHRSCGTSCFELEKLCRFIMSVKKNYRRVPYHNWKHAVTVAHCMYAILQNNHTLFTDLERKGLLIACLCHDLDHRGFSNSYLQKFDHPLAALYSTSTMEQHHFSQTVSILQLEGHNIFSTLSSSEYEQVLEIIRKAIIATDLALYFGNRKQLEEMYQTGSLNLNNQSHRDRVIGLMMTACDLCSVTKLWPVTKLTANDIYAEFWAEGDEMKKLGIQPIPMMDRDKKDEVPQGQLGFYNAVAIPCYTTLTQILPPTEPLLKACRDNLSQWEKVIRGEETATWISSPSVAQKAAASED

Row | SMILES | IC50
1 | COc1cc(CCc2nc3cccc(C)n3n2)nc2ccccc12 [4-Methoxy-2-[2-(5-methyl-[1,2,4]triazolo[1,5-a]pyridin-2-yl)-ethyl]-quinoline] | 190 nM
2 | Cc1ccc(C)n2nc(CCc3ccc4ccccc4n3)nc12 [2-[2-(5,8-Dimethyl-[1,2,4]triazolo[1,5-a]pyridin-2-yl)-ethyl]-quinoline] | 24 nM
3 | Cc1ncc(C)n2nc(CCc3cc(F)c4ccccc4n3)nc12 [2-[2-(5,8-Dimethyl-[1,2,4]triazolo[1,5-a]pyrazin-2-yl)-ethyl]-4-fluoro-quinoline] | 28 nM
4 | Cc1cc(C)n2nc(CCc3ccc4ccccc4n3)nc2n1 [2-[2-(5,7-Dimethyl-[1,2,4]triazolo[1,5-a]pyrimidin-2-yl)-ethyl]-quinoline] | 72 nM
5 | Cc1ncc(C)n2nc(CCc3ccc4c(Cl)cc(Cl)cc4n3)nc12 [5,7-Dichloro-2-[2-(5,8-dimethyl-[1,2,4]triazolo[1,5-a]pyrazin-2-yl)-ethyl]-quinoline] | 39 nM
6 | Cc1cc(C)n2cc(/C=C\c3ccc4ccccc4n3)nc2n1 [2-[(Z)-2-(5,7-Dimethyl-imidazo[1,2-a]pyrimidin-2-yl)-vinyl]-quinoline] | 240 nM
7 | COc1cc(CCc2nc3c(C)ncc(C)n3n2)nc2cc(F)ccc12 [2-[2-(5,8-Dimethyl-[1,2,4]triazolo[1,5-a]pyrazin-2-yl)-ethyl]-7-fluoro-4-methoxy-quinoline] | 26 nM
8 | COc1ccc2nc(CCc3nc4nc(C)cc(C)n4n3)ccc2c1 [2-[2-(5,7-Dimethyl-[1,2,4]triazolo[1,5-a]pyrimidin-2-yl)-ethyl]-6-methoxy-quinoline] | 170 nM
9 | COc1cccc2nc(/C=C/c3nc4c(C)ncc(C)n4n3)ccc12 [2-[(E)-2-(5,8-Dimethyl-[1,2,4]triazolo[1,5-a]pyrazin-2-yl)-vinyl]-5-methoxy-quinoline] | 19 nM
10 | COc1cc(CCc2nc3c(C)ncc(C)n3n2)nc2ccccc12 [2-[2-(5,8-Dimethyl-[1,2,4]triazolo[1,5-a]pyrazin-2-yl)-ethyl]-4-methoxy-quinoline] | 12 nM
11 | Cc1ccc(O)c2nc(CCc3ccc4cc(F)ccc4n3)nn12 [2-[2-(6-Fluoro-quinolin-2-yl)-ethyl]-5-methyl-[1,2,4]triazolo[1,5-a]pyridin-8-ol] | 85 nM
12 | Cc1ncc(C)n2nc(/C=C/c3ccc4cc(OC(F)(F)F)ccc4n3)nc12 [2-[(E)-2-(5,8-Dimethyl-[1,2,4]triazolo[1,5-a]pyrazin-2-yl)-vinyl]-6-trifluoromethoxy-quinoline] | 2800 nM
13 | Cc1ncc(C)n2nc(CCc3ccc4cc(C#N)c(Cl)cc4n3)nc12 [7-Chloro-2-[2-(5,8-dimethyl-[1,2,4]triazolo[1,5-a]pyrazin-2-yl)-ethyl]-quinoline-6-carbonitrile] | 59 nM
14 | COc1cc(CCc2nc3c(C)ncc(C)n3n2)nc2ccc(F)cc12 [2-[2-(5,8-Dimethyl-[1,2,4]triazolo[1,5-a]pyrazin-2-yl)-ethyl]-6-fluoro-4-methoxy-quinoline] | 14 nM
15 | Cc1cc2nc(CCc3nc4c(C)ncc(C)n4n3)ccc2cc1F [2-[2-(5,8-Dimethyl-[1,2,4]triazolo[1,5-a]pyrazin-2-yl)-ethyl]-6-fluoro-7-methyl-quinoline] | 8.8 nM
16 | Cc1ncc(C)n2nc(/C=C/c3ccc4cc(C(F)(F)F)ccc4n3)nc12 [2-[(E)-2-(5,8-Dimethyl-[1,2,4]triazolo[1,5-a]pyrazin-2-yl)-vinyl]-6-trifluoromethyl-quinoline] | 490 nM
17 | Cc1ncc(C)n2nc(CCc3ccc4cc5c(cc4n3)OC(F)(F)O5)nc12 [6-[2-(5,8-Dimethyl-[1,2,4]triazolo[1,5-a]pyrazin-2-yl)-ethyl]-2,2-difluoro-[1,3]dioxolo[4,5-g]quinoline] | 520 nM
18 | Cc1cc(C)n2cc(CCc3ccc4ccccc4n3)nc2n1 [2-[2-(5,7-Dimethyl-imidazo[1,2-a]pyrimidin-2-yl)-ethyl]-quinoline] | 310 nM
19 | COc1cc(CCc2nc3c(OC)ccc(C)n3n2)nc2ccccc12 [4-Methoxy-2-[2-(8-methoxy-5-methyl-[1,2,4]triazolo[1,5-a]pyridin-2-yl)-ethyl]-quinoline] | 35 nM
20 | COc1ccc(C)n2nc(CCc3ccc4cc(F)ccc4n3)nc12 [6-Fluoro-2-[2-(8-methoxy-5-methyl-[1,2,4]triazolo[1,5-a]pyridin-2-yl)-ethyl]-quinoline] | 34 nM

Row | SMILES | IC50
21 | Cc1ncc(C)n2nc(CCc3cc(O)c4ccc(F)cc4n3)nc12 [2-[2-(5,8-Dimethyl-[1,2,4]triazolo[1,5-a]pyrazin-2-yl)-ethyl]-7-fluoro-quinolin-4-ol] | 500 nM
22 | Cc1cc(Cl)c2nc(CCc3nc4c(C)ncc(C)n4n3)ccc2c1 [8-Chloro-2-[2-(5,8-dimethyl-[1,2,4]triazolo[1,5-a]pyrazin-2-yl)-ethyl]-6-methyl-quinoline] | 290 nM
23 | Cc1ncc(C)n2nc(CCc3cc(O)c4cc(F)ccc4n3)nc12 [2-[2-(5,8-Dimethyl-[1,2,4]triazolo[1,5-a]pyrazin-2-yl)-ethyl]-6-fluoro-quinolin-4-ol] | 410 nM
24 | COc1ccc(C)n2nc(CCc3ccc4ccccc4n3)nc12 [2-[2-(8-Methoxy-5-methyl-[1,2,4]triazolo[1,5-a]pyridin-2-yl)-ethyl]-quinoline] | 12 nM
25 | COc1ccc(C)n2nc(/C=C/c3cc(Cl)c4cccc(F)c4n3)nc12 [4-Chloro-8-fluoro-2-[(E)-2-(8-methoxy-5-methyl-[1,2,4]triazolo[1,5-a]pyridin-2-yl)-vinyl]-quinoline] | 270 nM
26 | COc1ccc(C)n2nc(CCc3ccc4cccc(F)c4n3)nc12 [8-Fluoro-2-[2-(8-methoxy-5-methyl-[1,2,4]triazolo[1,5-a]pyridin-2-yl)-ethyl]-quinoline] | 150 nM
27 | Cc1cc(CCc2nc3c(C)ncc(C)n3n2)nc2ccccc12 [2-[2-(5,8-Dimethyl-[1,2,4]triazolo[1,5-a]pyrazin-2-yl)-ethyl]-4-methyl-quinoline] | 18 nM
28 | Cc1ncc(C)n2nc(CCc3ccc4ccc(F)cc4n3)nc12 [2-[2-(5,8-Dimethyl-[1,2,4]triazolo[1,5-a]pyrazin-2-yl)-ethyl]-7-fluoro-quinoline] | 15 nM
29 | COc1ccc2ccc(/C=C/c3nc4c(C)ncc(C)n4n3)nc2c1 [2-[(E)-2-(5,8-Dimethyl-[1,2,4]triazolo[1,5-a]pyrazin-2-yl)-vinyl]-7-methoxy-quinoline] | 13 nM
30 | Cc1ncc(C)n2nc(CCc3ccc4cc(Cl)ccc4n3)nc12 [6-Chloro-2-[2-(5,8-dimethyl-[1,2,4]triazolo[1,5-a]pyrazin-2-yl)-ethyl]-quinoline] | 42 nM
31 | COc1ccc(C)n2nc(CCc3cc(C)c4ccccc4n3)nc12 [2-[2-(8-Methoxy-5-methyl-[1,2,4]triazolo[1,5-a]pyridin-2-yl)-ethyl]-4-methyl-quinoline] | 42 nM
32 | Cc1ncc(C)n2nc(CCc3ccc4c(F)cccc4n3)nc12 [2-[2-(5,8-Dimethyl-[1,2,4]triazolo[1,5-a]pyrazin-2-yl)-ethyl]-5-fluoro-quinoline] | 120 nM
33 | Cc1ncc(C)n2nc(CCc3ccc4c(F)c(F)cc(F)c4n3)nc12 [2-[2-(5,8-Dimethyl-[1,2,4]triazolo[1,5-a]pyrazin-2-yl)-ethyl]-5,6,8-trifluoro-quinoline] | 360 nM
34 | Cc1ncc(C)n2nc(CCc3ccc4cc(F)ccc4n3)nc12 [2-[2-(5,8-Dimethyl-[1,2,4]triazolo[1,5-a]pyrazin-2-yl)-ethyl]-6-fluoro-quinoline] | 24 nM and 26 nM
35 | Cc1ncc(C)n2nc(CCc3ccc4cc5c(cc4n3)OCCO5)nc12 [7-[2-(5,8-Dimethyl-[1,2,4]triazolo[1,5-a]pyrazin-2-yl)-ethyl]-2,3-dihydro-[1,4]dioxino[2,3-g]quinoline] | 4 nM
36 | CCc1ccc(C)n2nc(CCc3ccc4cc(F)ccc4n3)nc12 [2-[2-(8-Ethyl-5-methyl-[1,2,4]triazolo[1,5-a]pyridin-2-yl)-ethyl]-6-fluoro-quinoline] | 25 nM
37 | Cc1ncc(C)n2nc(CCc3ccc4cc5c(cc4n3)OCO5)nc12 [6-[2-(5,8-Dimethyl-[1,2,4]triazolo[1,5-a]pyrazin-2-yl)-ethyl]-[1,3]dioxolo[4,5-g]quinoline] | 13 nM
38 | Cc1cnc(C)n2nc(CCc3ccc4cc(C(C)C)ccc4n3)nc12 [2-[2-(5,8-Dimethyl-[1,2,4]triazolo[1,5-c]pyrimidin-2-yl)-ethyl]-6-isopropyl-quinoline] | 61 nM
39 | Cc1ncc(C)n2nc(/C=C/c3ccc4cc(C#N)ccc4n3)nc12 [2-[(E)-2-(5,8-Dimethyl-[1,2,4]triazolo[1,5-a]pyrazin-2-yl)-vinyl]-6-cyano-quinoline] | 2100 nM
